Test systems include PC-3 prostate; K-562 leukemia; BT-549 breast; CCRF-CEM leukemia; HOP-92 NSCLC; LOX IMVI melanoma; CAKI-1 renal; SNB-19 CNS; A549 NSCLC; A498 renal.
Experiment in all cases: NCI-60 cell line screen, 48 h

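The compound was tested at five concentrations on cells cultured in 96-well plates, with a 48-hour exposure period. GI50 is the concentration that inhibits growth by half. TGI: concentration producing complete growth inhibition.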 Where only a bound is given, the exact number is not on record here.

This is an account of results in PubChem BioAssay (NCI).

`COc1cccc(N2CC(O)=C(c3nc4ccccc4s3)C2=N)c1`: the GI50 is 0.32 µM in the assay on PC-3 prostate; below 0.0204 µM in the assay on K-562 leukemia; 0.726 µM with BT-549 breast; 0.243 µM with CCRF-CEM leukemia; 3.99 µM in the assay with HOP-92 NSCLC; 0.459 µM in the assay on LOX IMVI melanoma. In addition, the GI50 is 0.11 µM with CAKI-1 renal, 0.702 µM in the assay with SNB-19 CNS, 0.656 µM with A549 NSCLC and 0.33 µM in the assay on A498 renal. The TGI in the assay on PC-3 prostate was above 100 µM; in the assay on K-562 leukemia it was above 100 µM; in the assay with BT-549 breast, above 100 µM; with CCRF-CEM leukemia, above 100 µM; in the assay on HOP-92 NSCLC, above 57.2 µM; in the assay with LOX IMVI melanoma it was above 100 µM. Besides, the TGI in the assay with CAKI-1 renal was above 100 µM; with SNB-19 CNS, above 100 µM; with A549 NSCLC, above 56.6 µM; in the assay with A498 renal, 20 µM.

As for `Cc1cc(OCc2ccc(C(F)(F)F)cc2)c2c(c1)C(=O)C=C(NCCN1CCCC1)C2=O`, the GI50 with PC-3 prostate is 5.36 µM; in the assay with K-562 leukemia it was 2.41 µM; in the assay on BT-549 breast, 2.05 µM; in the assay with CCRF-CEM leukemia it was 2.48 µM; with HOP-92 NSCLC, 1.96 µM; in the assay on LOX IMVI melanoma it was 1.92 µM. For the same compound, the GI50 in the assay with CAKI-1 renal is 1.79 µM; with SNB-19 CNS, 2.46 µM; with A549 NSCLC, 2.85 µM; in the assay with A498 renal, 2.69 µM. Moreover, the TGI worked out at 19.5 µM with PC-3 prostate; 6.18 µM with K-562 leukemia; 5.36 µM in the assay on BT-549 breast; 7.12 µM in the assay with CCRF-CEM leukemia; 7.38 µM in the assay with HOP-92 NSCLC; 3.55 µM in the assay with LOX IMVI melanoma. In addition, the TGI in the assay with CAKI-1 renal turned out to be 4.83 µM; with SNB-19 CNS, 6.2 µM; in the assay with A549 NSCLC it was 9.68 µM; in the assay on A498 renal, 12.8 µM.

Consider `CC1=CC(C)=N/C(=N/S(=O)(=O)c2cc(C)c(Cl)cc2SCc2ccccc2)NN1`, for which the GI50 in the assay on PC-3 prostate is above 100 µM; in the assay on K-562 leukemia, above 100 µM; in the assay on BT-549 breast it was above 100 µM; in the assay with CCRF-CEM leukemia, above 100 µM; with HOP-92 NSCLC, 17.9 µM; with LOX IMVI melanoma, above 100 µM. Also, the GI50 in the assay with CAKI-1 renal, with SNB-19 CNS, in the assay with A549 NSCLC and with A498 renal was above 100 µM throughout. Also, the TGI was above 100 µM with PC-3 prostate; above 100 µM in the assay with K-562 leukemia; above 100 µM with BT-549 breast; above 100 µM with CCRF-CEM leukemia; 62.8 µM in the assay on HOP-92 NSCLC; above 100 µM with LOX IMVI melanoma. Further, the TGI in the assay on CAKI-1 renal, with SNB-19 CNS, in the assay with A549 NSCLC and in the assay with A498 renal was above 100 µM in each case.

`Cn1nc(C(F)(F)F)cc1-c1cc(Cl)c(OCc2ccc(Cl)cc2)c(-c2ccc(Cl)c(C(F)(F)F)c2)c1O`: the GI50 was 0.709 µM in the assay on PC-3 prostate; 0.312 µM in the assay on K-562 leukemia; 0.995 µM in the assay on BT-549 breast; 0.821 µM in the assay with CCRF-CEM leukemia; 0.554 µM with HOP-92 NSCLC; 1.16 µM in the assay with LOX IMVI melanoma. The GI50 was 1.11 µM in the assay on CAKI-1 renal, 1.16 µM with SNB-19 CNS, 1.41 µM in the assay with A549 NSCLC and 0.251 µM in the assay on A498 renal. In addition, the TGI in the assay on PC-3 prostate came out at 5.09 µM; with K-562 leukemia it was 5.08 µM; in the assay on BT-549 breast, 2.75 µM; in the assay with CCRF-CEM leukemia, 19.6 µM; in the assay on HOP-92 NSCLC, 2.1 µM; in the assay on LOX IMVI melanoma it was 3.12 µM. The TGI in the assay on CAKI-1 renal was 3.49 µM; in the assay on SNB-19 CNS it was 6.72 µM; in the assay on A549 NSCLC, 5.6 µM; in the assay with A498 renal, 1.09 µM.

For `CC(NNC(=S)N1CCN(c2ccccn2)CC1)c1nccc2ccccc12` (stereo not given), the TGI in the assay on PC-3 prostate stood at 14.9 µM; with K-562 leukemia, 14.2 µM; in the assay with BT-549 breast it was 22.6 µM; in the assay on CCRF-CEM leukemia, 1.02 µM; with HOP-92 NSCLC, 7.79 µM; in the assay on LOX IMVI melanoma, 11.2 µM. The TGI with CAKI-1 renal was 10.3 µM; in the assay on SNB-19 CNS it was 17 µM; in the assay on A549 NSCLC, 13.2 µM; with A498 renal it was 17.3 µM.

For the compound `COc1cc(OC)c(/C=C/C(=O)c2c(OC)cc(OC)cc2OC)c(OC)c1`, the GI50 in the assay with PC-3 prostate was 0.992 µM; with K-562 leukemia it was 0.394 µM; in the assay on BT-549 breast it was 0.931 µM; in the assay with CCRF-CEM leukemia, 0.876 µM; with HOP-92 NSCLC, 0.534 µM; in the assay on LOX IMVI melanoma it was 0.782 µM. In addition, the GI50 was 1.66 µM with CAKI-1 renal, 2.54 µM in the assay on SNB-19 CNS, 1.72 µM in the assay on A549 NSCLC and 0.27 µM with A498 renal. Moreover, the TGI in the assay with PC-3 prostate was above 100 µM; with K-562 leukemia it was above 100 µM; in the assay with BT-549 breast it was above 24.5 µM; in the assay with CCRF-CEM leukemia, above 100 µM; in the assay on HOP-92 NSCLC, 6.5 µM; in the assay on LOX IMVI melanoma, 4.54 µM. Further, the TGI is above 37.2 µM in the assay with CAKI-1 renal, 14.9 µM in the assay with SNB-19 CNS, above 76.3 µM with A549 NSCLC and 4.85 µM in the assay on A498 renal.

Consider `Nc1ccc(C#Cc2ccccc2C#CCCCCO)cc1`, for which the GI50 was 15.6 µM in the assay with PC-3 prostate; 19.7 µM in the assay with K-562 leukemia; 16.3 µM in the assay on BT-549 breast; 13.2 µM with CCRF-CEM leukemia; 15.5 µM in the assay with HOP-92 NSCLC; 16.2 µM with LOX IMVI melanoma. In addition, the GI50 was 20.9 µM with CAKI-1 renal, 17.5 µM in the assay with SNB-19 CNS, 14.7 µM with A549 NSCLC and 19.8 µM in the assay with A498 renal. The TGI was found to be 28.9 µM in the assay on PC-3 prostate; 40.8 µM with K-562 leukemia; 34.8 µM with BT-549 breast; 28.1 µM with CCRF-CEM leukemia; 32.1 µM in the assay on HOP-92 NSCLC; 29.7 µM in the assay with LOX IMVI melanoma. Further, the TGI came out at 40.4 µM in the assay with CAKI-1 renal, 31.3 µM in the assay with SNB-19 CNS, 28.7 µM in the assay on A549 NSCLC and 42.1 µM with A498 renal.

Regarding `Oc1c(C(Nc2ccccn2)c2ccccc2)ccc2cccnc12` (stereo not given), the TGI is 30.3 µM with PC-3 prostate; 24.9 µM in the assay on K-562 leukemia; above 93.4 µM in the assay with BT-549 breast; 3.81 µM in the assay with CCRF-CEM leukemia; 9.97 µM in the assay with HOP-92 NSCLC; 37.9 µM in the assay on LOX IMVI melanoma. The TGI with CAKI-1 renal is above 87.4 µM; with SNB-19 CNS, above 100 µM; with A549 NSCLC, above 100 µM; with A498 renal it was 54.8 µM.
